Test results from ChEMBL document CHEMBL5576099, “Isolation, Characterization, and Antiproliferative Activity of Terpenoids from the Tropical Plant Turraea delphinensis” (J Nat Prod, 2024).

Experiments:
Type in all cases: functional, cell-based
MDA-MB-231 = test: Antiproliferative activity against human MDA-MB-231 cells assessed as reduction in cell viability by SRB assay
MCF7 = test: Antiproliferative activity against human MCF7 cells assessed as reduction in cell viability by SRB assay
[1] = Antiproliferative activity against human KB-VIN cells over expressing p-gp assessed as reduction in cell viability by SRB assay; conditions: KBVIN
A549 = test: Antiproliferative activity against human A549 cells assessed as reduction in cell viability by SRB assay
KB = test: Antiproliferative activity against human KB cells assessed as reduction in cell viability by SRB assay

Row | Structure (SMILES) | IC50 (MDA-MB-231) [µM] | IC50 (MCF7) [µM] | IC50 (A549) [µM] | IC50 (KB) [µM] | IC50 [1] [µM]
1 | CC(C)(O)[C@@H]1CC[C@H]([C@H]2CC[C@@]3(C)[C@@H]4CC[C@H]5C(C)(C)C(=O)CC[C@@]56C[C@@]46CC[C@]23C)CO1 (relative stereo) | > 10 | > 10 | 9.1 | > 10 | > 10
2 | C[C@H]([C@H]1OC(C)(C)[C@@H](O)[C@@H]1O)[C@@H]1CC[C@]2(C)C3=CC[C@H]4C(C)(C)C(=O)CC[C@]4(C)[C@H]3CC[C@@]12C (relative stereo) | > 10 | > 10 | > 10 | > 10 | > 10
3 | CC(C)=CCC[C@]1(C)[C@H]2[C@@H]3[C@H](C)CC[C@H]3[C@](C)(O)CC[C@H]21 | > 10 | > 10 | 8.9 | 8.9 | > 10
4 | CC1(C)OCC([C@@H]2CC[C@]3(C)C4=CC[C@H]5C(C)(C)C(=O)CC[C@]5(C)[C@H]4CC[C@@]23C)C[C@@H](O)[C@@H]1O (stereo partly drawn) | > 10 | > 10 | 8.3 | 9.5 | 7.9
5 | CC1(C)C(=O)CC[C@@]2(C)C1CC=C1[C@@H]2CC[C@@]2(C)[C@H](C3CO[C@@H](C(C)(C)O)[C@H](O)C3)CC[C@]12C (stereo partly drawn) | > 10 | > 10 | > 10 | > 10 | > 10
6 | CC(=O)O[C@H]1[C@@H](OC(C)=O)[C@@]2(C)C3=CC[C@@H]([C@H]4COC(=O)C4)[C@]3(C)CC[C@@H]2[C@@]2(C)[C@@H](O)C[C@@H](O)C(C)(C)[C@H]12 | > 10 | > 10 | > 10 | > 10 | > 10
7 | C=C1CC[C@@H]2[C@H]([C@H]3[C@@H]1CC[C@]3(C)O)[C@@]2(C)CCC=C(C)C | > 10 | > 10 | > 10 | > 10 | > 10
8 | CC(C)=C[C@@H]1C[C@H]([C@H]2CC[C@@]3(C)[C@@H]4CC[C@H]5C(C)(C)C(=O)CC[C@@]56C[C@@]46CC[C@]23C)CO1 | > 10 | > 10 | > 10 | > 10 | > 10
9 | C=C[C@]1(C)C=C2C(=O)CC3C(C)(C)CCC[C@]3(C)C2CC1 (stereo partly drawn) | > 10 | > 10 | > 10 | > 10 | > 10
10 | CC(C)=C[C@H]1C[C@H]([C@H]2CC[C@@]3(C)[C@@H]4CC[C@H]5C(C)(C)C(=O)CC[C@@]56C[C@@]46CC[C@]23C)CO1 | > 10 | > 10 | > 10 | > 10 | > 10
11 | C[C@H](C/C=C/C(C)(C)O)[C@H]1CC[C@@]2(C)[C@@H]3CC[C@H]4C(C)(C)C(=O)CC[C@@]45C[C@@]35CC[C@]12C | > 10 | > 10 | 9.6 | > 10 | > 10
12 | C[C@H](C/C=C/C(C)(C)O)[C@H]1CC[C@@]2(C)[C@@H]3CC[C@H]4C(C)(C)[C@H](O)CC[C@@]45C[C@@]35CC[C@]12C | 9.3 | > 10 | > 10 | > 10 | > 10
13 | C[C@@H](C[C@@H](O)[C@@H]1OC1(C)C)[C@@H]1CC[C@]2(C)C3=CC[C@H]4C(C)(C)C(=O)CC[C@]4(C)[C@H]3CC[C@@]12C | 7.1 | 6.9 | 5.9 | 4.6 | 6.1
14 | C[C@@H]([C@H](O)/C=C/C(C)(C)O)[C@@H]1CC[C@]2(C)C3=CC[C@H]4C(C)(C)C(=O)CC[C@]4(C)[C@H]3CC[C@@]12C | > 10 | > 10 | > 10 | 9 | 9.5

More lines, main results first:

Row | IC50 (MDA-MB-231) [µM] | IC50 (MCF7) [µM] | IC50 (A549) [µM] | IC50 (KB) [µM] | Structure (SMILES) | IC50 [1] [µM]
15 | > 10 | > 10 | > 10 | > 10 | C[C@H](C[C@@H](O)[C@@H]1OC1(C)C)[C@H]1CC[C@@]2(C)[C@@H]3CC[C@H]4C(C)(C)C(=O)CC[C@@]45C[C@@]35CC[C@]12C (relative stereo) | > 10
16 | > 10 | > 10 | > 10 | > 10 | CC(C)=CC(=O)C[C@@H](C)[C@H]1CC[C@@]2(C)[C@@H]3CC[C@H]4C(C)(C)[C@@H](O)CC[C@@]45C[C@@]35CC[C@]12C | > 10
17 | > 10 | > 10 | > 10 | > 10 | CC(C)CC(=O)[C@@H](O)[C@H](C)[C@@H]1CC[C@]2(C)C3=CC[C@H]4C(C)(C)C(=O)CC[C@]4(C)[C@H]3CC[C@@]12C | > 10
18 | > 10 | > 10 | > 10 | > 10 | CC(C)=CC(O)C[C@H](C)[C@@H]1CC[C@]2(C)C3=CCC4C(C)(C)[C@@H](O)CC[C@]4(C)[C@H]3CC[C@@]12C (stereo partly drawn) | > 10
19 | > 10 | > 10 | > 10 | > 10 | C=C[C@]1(C)C=C2C(CC1)[C@@]1(C)CCCC(C)(C)C1C[C@@H]2O (stereo partly drawn) | > 10
20 | > 10 | > 10 | > 10 | > 10 | CC(C)=CC(=O)C[C@@H](C)[C@H]1CC[C@@]2(C)[C@@H]3CC[C@H]4C(C)(C)C(=O)CC[C@@]45C[C@@]35CC[C@]12C | > 10
21 | > 10 | > 10 | 8 | 8.2 | C[C@@H](C[C@@H](O)[C@H](O)C(C)(C)O)[C@@H]1CC[C@]2(C)C3=CC[C@H]4C(C)(C)[C@@H](O)CC[C@]4(C)[C@H]3CC[C@@]12C | 9.7
22 | > 10 | > 10 | 5.4 | 8.1 | C[C@@H]([C@@H]1O[C@@H]1[C@@H]1OC1(C)C)[C@@H]1CC[C@]2(C)C3=CC[C@H]4C(C)(C)C(=O)CC[C@]4(C)[C@H]3CC[C@@]12C | 8.3
23 | > 10 | > 10 | > 10 | > 10 | CC(C)=C[C@H](O)C[C@@H](CO)[C@H]1CC[C@@]2(C)[C@@H]3CC[C@H]4C(C)(C)C(=O)CC[C@@]45C[C@@]35CC[C@]12C (mixture of isomers) | 9.9
24 | 0.0084 | – | – | 0.0071 | CC(=O)O[C@H]1C(=O)[C@@]2(C)[C@H]([C@H](OC(=O)c3ccccc3)[C@]3(O)C[C@H](OC(=O)[C@H](O)[C@@H](NC(=O)c4ccccc4)c4ccccc4)C(C)=C1C3(C)C)[C@]1(OC(C)=O)CO[C@@H]1C[C@@H]2O [PACLITAXEL] | 2.21
25 | 7.4 | > 10 | 6.5 | 3.9 | CC(C)=CCC[C@@H](CO)[C@H]1CC[C@@]2(C)[C@@H]3CC[C@H]4C(C)(C)C(=O)CC[C@@]45C[C@@]35CC[C@]12C | 6.2
26 | 4.7 | 7.2 | 5.2 | 4.8 | C[C@@H](C[C@@H](O)[C@@H]1OC1(C)C)[C@@H]1CC[C@]2(C)C3=CC[C@H]4C(C)(C)[C@@H](O)CC[C@]4(C)[C@H]3CC[C@@]12C [DIHYDRONILOTICIN] | 5.1
